“Also recorded” adds a separate entry of the source. Where two headings read alike, the source gives them in different places.
Experiments:
skin of Guinea Pig [1] = details: TABLE I, cited from earlier work
pH of aqueous solution = type: physicochemical; details: 6% solution in water
[2] = test system: lipidic synthesis of the sebaceous gland; assay: In vitro antiseborrheic properties (14C-acetate incorporation, prepucial gland of the rat); type: cell-based
Procedure: In vitro antiseborrheic properties of CB 619
According to the experiment, the lipidic metabolic activity of the prepucial gland of the rat was evaluated. The lipidic synthesis of the sebaceous gland was evaluated by adding, as marked precursor, sodium ^14 C-acetate.
CB 619 was tested in comparison with carboxymethylcysteine (CMC) as a reference.

skin = details: rabbit, in vivo
Text: Skin irritation index of CB 619 in the Rabbit
The experiment was made according to the French "Arrete Ministeriel" of the 21th of February 1982 which specifies the official method for the determination Of the skin primary irritation index (SPI).
The official method for the determination of the index of primary cutaneous irritation is described in detail in Annex 1.
The present method is utilized so as to determine the index of primary cutaneous irritation for a cosmetic or bodily hygiene product.
This method is based on the observation of cutaneous reactions provoked through the sole application of the principle.
4.1. Male albino rabbits of defined breed, weighing around 2.5 kg. So as to be perfectly acclimated, the animals must be kept in individual cages for one week prior to the experiment, and; must receive food of invariably balanced composition.
5.1.1. The day before application of the product, shear the back and flanks of the rabbits (4.1) with shears (4.3) so as to clear a surface of about 14 cm×14 cm; proceed with care in order to avoid all irritation. Verify skin condition so as to retain but six animals presenting healthy and clean-shaved skin.
5.1.2. […]
Primary cutaneous irritation must be evaluated around thirty minutes subsequent to removal of the dressing; a second evaluation is to take place 48 hours later, i.e. 72 hours after application of the product. […]

[3] = test system: Pityrosporum orbiculare 1219; assay: Antifungic test, cylinders method (inhibition diameter); type: cell-based; details: 72 hours at 37° C.
Procedure: (§1) CB 619 was tested against Pityrosporum orbiculare 1219 and Pityrosporum ovale 1363, both from the Pasteur Institute, in the Dixon's culture medium, modified by Randjandiche according to the following composition: 30 ml of culture medium were cast in each Petri dish of 90 mm of diameter. The inoculum was a 2 ml suspension of Pityrosporum containing 10,000,000 germs, 72 hours old, per ml. After drying at 37° C., tests were carried out according to discs method or to cylinders method. According to cylinders method, cylinders of 4 mm of diameter were excavated in gelose with a stainless steel tool, and 75 microliters of the solution of the tested product were introduced into each cylinder. According to both methods, the inhibition areas were measured after a time of incubation of 72 hours at 37° C. According to cylinders method, Intrinsic Inhibition Power of CB 619 is, the inhibition diameter being given in mm: […]

Pityrosporum ovale 1363 [4] = assay: as above; type: cell-based; details: 72 hours at 37° C.
Procedure: as §1

eye = details: rabbit, in vivo
Text: The experiment was made according to the recommendations of the French "Arrete Ministeriel" of the 21 February 1984 which specifies the official method to determinate the eye irritation (E.I.).
The present method is utilized so as to evaluate the kind and degree of irritation brought about in the eyes by the use of a cosmetic or bodily hygiene product.
The method is based on observation of ocular reaction provoked by the sole instillation of the product.
Directly apply the product in the conjunctival pouch of one of the eyes in the following doses:
Observe the eye of the rabbits one hour, and then 1, 2, 3, 4 and 7 days following the instillation, utilizing the non-instilled eye as a control in order to evaluate possible irritation in the treated eye.
Add up the scores gathered for each of the six rabbits as of each time of observation. One thereby obtains the index of individual ocular irritation: I.O.I.
At each time of observation calculate the average individual ocular irriatation for the six rabbits. One thereby obtains the index of mean ocular irritation: O.I.
Note among the six ocular irritation scores the one with the highest value. One thereby obtains the index of maximum ocular irritation: M.O.I. The time it takes for the latter to appear will be specified in the minutes or report of the experiment.
In an initial approximation, the product is classified in one of the six categories in accordance with the maximum ocular irritation scores.
In a second evaluation, the persistence of lesions intervenes as a corrective of the preceding classification; the ocular irritation and individual ocular irritation scores at different times are taken into account:

[5] = test system: Pityrosporum orbiculare 1219; assay: Antifungic test, discs method (inhibition diameter); type: cell-based; details: 72 hours at 37° C.
Procedure: (§2) CB 619 was tested against Pityrosporum orbiculare 1219 and Pityrosporum ovale 1363, both from the Pasteur Institute, in the Dixon's culture medium, modified by Randjandiche according to the following composition:
(§3) 30 ml of culture medium were cast in each Petri dish of 90 mm of diameter.
(§4) The inoculum was a 2 ml suspension of Pityrosporum containing 10,000,000 germs, 72 hours old, per ml.
(§5) After drying at 37° C., tests were carried out according to discs method or to cylinders method.
(§6) According to the discs method, discs of 6 mm of Antibiotica-Testblattchen Schleider & Schull, reference 2668/2, are soaked in test solution, then set down onto the seeded medium.
(§7) According to both methods, the inhibition areas were measured after a time of incubation of 72 hours at 37° C.
(§8) According to the discs method, Intrinsic Inhibition Power of CB 619 is, the inhibition diameter being given in mm: […]

Pityrosporum ovale 1363 [6] = assay: as above; type: cell-based; details: 72 hours at 37° C.
Procedure: as §2, §3, §4, §5, §6, §7, §8

skin of Guinea Pig [7] = details: in vivo
Text: The experiment was made according to the technical sheet No. 44 (J. Pharmacol. Paris, 1978, 9, 1, 103-6) which conforms to the Magnusson and Kligmann technique.
This sensibilization test according to Magnusson and Kligmann is described in detail in annex 3.
This test is designed to create a delayed allergic reaction in the guinea pig.
Female albino Hartley-breed guinea pigs weighing between 300 and 500 grams.
For the intradermic tract, the product is placed in solution or suspension in bidistilled water, or a suitable solvent. Intradermic injections of 0.1 ml are given in the preliminarily sheared and shaved dorsal region of four albino guinea pigs in increased concentrations. […] The reading of possible reactions takes place after 24 hours. […] If this is not the case, the scale utilized will depend on the maximum non-irritating concentration (MNIC), whose determination may require a second series of tests with concentrations to be determined in accordance with the results of the first.
The same procedures are used for the external cutaneous tract, with the product being placed, in certain cases, in suspension or solution in vaseline. […] Readings are taken one hour following removal of the pads. […]
Readings of local reactions take place 24 and 48 hours following removal of the pad. […]

Mouse = assay: Acute toxicity in the Mouse (LD 50); type: in vivo; details: for LD 50: male and female mice, 14 days, Miller and Tainter method
Procedure: Acute toxicity of CB 619 in the Mouse
The lethal dosis 50% (LD 50) of CB 619 were evaluated when dissolved in bidistilled water and administered by 0.2 to 0.3 ml/kg volumes, monitoring the effect during 14 days.

[8] = test system: wound made by loss of substance; assay: Cicatrizing activity in the rat (area of wound); type: in vivo
Text: Cicatrizing activity of CB 619 in the rat
The experiment was to calculate the area of the wound made by loss of substance.

cicatrization of wounds = details: normal animal, without zinc deficiency; Favier et al. 1980; cited from earlier work

CCOC(=O)c1ccc(N)cc1 [Benzocaine]
Class. (degree of allergenicity) (skin of Guinea Pig [1]; reading 24): II (9-28) | Number of animals with Note 0 (skin of Guinea Pig [1]; reading 24): 17 | Number of animals with Note 1 (skin of Guinea Pig [1]; reading 24): 3 | Number of animals with Note 2 (skin of Guinea Pig [1]; reading 24): 0 | Number of animals with Note 3 (skin of Guinea Pig [1]; reading 24): 0 | Percentage of animals having presented a reaction (skin of Guinea Pig [1]; reading 24): 15% | Class. (degree of allergenicity) (skin of Guinea Pig [1]; reading 48): II (9-28) | Number of animals with Note 0 (skin of Guinea Pig [1]; reading 48): 17 | Number of animals with Note 1 (skin of Guinea Pig [1]; reading 48): 3 | Number of animals with Note 2 (skin of Guinea Pig [1]; reading 48): 0 | Number of animals with Note 3 (skin of Guinea Pig [1]; reading 48): 0 | Percentage of animals having presented a reaction (skin of Guinea Pig [1]; reading 48): 15%

N[C@@H](CS(=O)(=O)O)C(=O)[O-].N[C@@H](CS(=O)(=O)O)C(=O)[O-].O.O.[Zn+2] [CB 619, dihydrate of the zinc salt of L-cysteic acid]
pH of a 6% solution (pH of aqueous solution): about 6.30 | Cell multiplication (human fibroblast cells; 1 and 5 microgram/ml): increases the 5 cell multiplication in accordance with the concentration | Significance of increase in cell multiplication (days) (human fibroblast cells; 1 microgram/ml): significant on the sixth day | Significance of increase in cell multiplication (days) (human fibroblast cells; 5 microgram/ml): on the fourth, sixth and eighth days | Inhibition of the lipidic synthesis ([2]; 10^-3 M): 41.8% | Antiseborrheic activity compared with carboxymethylcysteine ([2]; 10^-3 M, CB 619 versus CMC): the more active | Inhibition of the lipidic synthesis ([2]; 10^-4 M): 33.7% | Skin irritation classification (skin): non-irritant | Skin primary irritation index (SPI) (skin): 0.1666 | Intrinsic Inhibition Power, inhibition diameter ([3]; concentration of 2%): 10 mm | Intrinsic Inhibition Power, inhibition diameter ([3]; saturated solution): 11 mm | Intrinsic Inhibition Power, inhibition diameter (Pityrosporum ovale 1363 [4]; concentration of 2%): 10 mm | Intrinsic Inhibition Power, inhibition diameter (Pityrosporum ovale 1363 [4]; saturated solution): 11 mm | Eye irritation (E.I.) (eye): under 2 | Eye irritation classification (eye): very weakly irritant | Maximum eye irritation (eye): 5.83 | Solubility in water: ~6 weight-percent by volume | Intrinsic Inhibition Power, inhibition diameter ([5]; 1 mg): 6 mm | Intrinsic Inhibition Power, inhibition diameter ([5]; 2 mg): 7 mm | Intrinsic Inhibition Power, inhibition diameter ([5]; 3 mg): 9 mm | Intrinsic Inhibition Power, inhibition diameter ([5]; 4 mg): 11 mm | Intrinsic Inhibition Power, inhibition diameter ([5]; 5 mg): 13 mm | Intrinsic Inhibition Power, inhibition diameter (Pityrosporum ovale 1363 [6]; 1 mg): 6 mm | Intrinsic Inhibition Power, inhibition diameter (Pityrosporum ovale 1363 [6]; 2 mg): 7 mm | Intrinsic Inhibition Power, inhibition diameter (Pityrosporum ovale 1363 [6]; 3 mg): 9 mm | Intrinsic Inhibition Power, inhibition diameter (Pityrosporum ovale 1363 [6]; 4 mg): 11 mm | Intrinsic Inhibition Power, inhibition diameter (Pityrosporum ovale 1363 [6]; 5 mg): 13 mm | Allergenicity (sensibilization) (skin of Guinea Pig [7]): no allergenic properties | LD 50 (Mouse; intraperitoneally): 100 ± 13 mg/kg | Signs at the toxic dosis (Mouse; mouse, toxic dosis): animals become isolated in their cage; also recorded: Their hair stands up and they move with difficulty; also recorded: No diarrhea was observed | LD 50 (Mouse; orally): 1650 ± 60 mg/kg | Cicatrization ([8]; 3% in a 2% carbopol gel): enhances cicatrization | Cicatrization ([8]; 10% in a 2% carbopol gel): no more active

Nc1ccc(N)cc1 [Diamine paraphenylene]
Class. (degree of allergenicity) (skin of Guinea Pig [1]; reading 24): V (81-100) | Number of animals with Note 0 (skin of Guinea Pig [1]; reading 24): 3 | Number of animals with Note 1 (skin of Guinea Pig [1]; reading 24): 13 | Number of animals with Note 2 (skin of Guinea Pig [1]; reading 24): 4 | Number of animals with Note 3 (skin of Guinea Pig [1]; reading 24): 0 | Percentage of animals having presented a reaction (skin of Guinea Pig [1]; reading 24): 85% | Class. (degree of allergenicity) (skin of Guinea Pig [1]; reading 48): IV (65-80) | Number of animals with Note 0 (skin of Guinea Pig [1]; reading 48): 4 | Number of animals with Note 1 (skin of Guinea Pig [1]; reading 48): 12 | Number of animals with Note 2 (skin of Guinea Pig [1]; reading 48): 4 | Number of animals with Note 3 (skin of Guinea Pig [1]; reading 48): 0 | Percentage of animals having presented a reaction (skin of Guinea Pig [1]; reading 48): 80%

CCN(CC)CCNC(=O)c1ccc(N)cc1 [Procainamide]
Number of animals with Note 0 (skin of Guinea Pig [1]; reading 24): 6 | Number of animals with Note 1 (skin of Guinea Pig [1]; reading 24): 5 | Number of animals with Note 2 (skin of Guinea Pig [1]; reading 24): 9 | Number of animals with Note 3 (skin of Guinea Pig [1]; reading 24): 0 | Percentage of animals having presented a reaction (skin of Guinea Pig [1]; reading 24): 70% | Number of animals with Note 0 (skin of Guinea Pig [1]; reading 48): 6 | Number of animals with Note 1 (skin of Guinea Pig [1]; reading 48): 5 | Number of animals with Note 2 (skin of Guinea Pig [1]; reading 48): 9 | Number of animals with Note 3 (skin of Guinea Pig [1]; reading 48): 0 | Percentage of animals having presented a reaction (skin of Guinea Pig [1]; reading 48): 70%

OCC(O)CS (stereo not shown) [Thioglycerol]
Class. (degree of allergenicity) (skin of Guinea Pig [1]; reading 24): III (29-64) | Number of animals with Note 0 (skin of Guinea Pig [1]; reading 24): 7 | Number of animals with Note 1 (skin of Guinea Pig [1]; reading 24): 9 | Number of animals with Note 2 (skin of Guinea Pig [1]; reading 24): 3 | Number of animals with Note 3 (skin of Guinea Pig [1]; reading 24): 0 | Percentage of animals having presented a reaction (skin of Guinea Pig [1]; reading 24): 63% | Class. (degree of allergenicity) (skin of Guinea Pig [1]; reading 48): III (29-64) | Number of animals with Note 0 (skin of Guinea Pig [1]; reading 48): 11 | Number of animals with Note 1 (skin of Guinea Pig [1]; reading 48): 8 | Number of animals with Note 2 (skin of Guinea Pig [1]; reading 48): 0 | Number of animals with Note 3 (skin of Guinea Pig [1]; reading 48): 0 | Percentage of animals having presented a reaction (skin of Guinea Pig [1]; reading 48): 45%

[Zn] [zinc]
Cicatrization (cicatrization of wounds): does not accelerate the cicatrization

carboxymethylcysteine [CMC]
Inhibition of the lipidic synthesis ([2]; 10^-3 M): 24.5% | Inhibition of the lipidic synthesis ([2]; 10^-4 M): 5.9%

— patent US5661177A, “Zinc cysteate its preparation and uses in pharmacy and cosmetology” (Chimie et Biologie, priority 1988, dated 1997)
